Measurements: PMC11277489, “Novel Piperazine Derivatives of Vindoline as Anticancer Agents” (International Journal of Molecular Sciences, 2024)
Like-named read-outs stand apart in the source and are kept apart here.

Legend:
Assay type in all cases: cell-based
BT-549 = test: NCI60 five-dose screen, Breast Cancer; conditions: Homo sapiens; BT-549, Breast Cancer; five-dose screen; read-out: GI50
RPMI-8226 = test: NCI60 five-dose screen, Leukemia; conditions: Homo sapiens; RPMI-8226, Leukemia; five-dose screen; read-out: GI50
[1] = test system: 60 human tumor cell lines (NCI60); test: NCI60 five-dose screen, whole panel and sub-panel means; conditions: Homo sapiens, read-out: GI50 Mean
M14 = test: NCI60 five-dose screen, Melanoma; conditions: Homo sapiens; M14, Melanoma; five-dose screen; read-out: GI50
OVCAR-8 = test: NCI60 five-dose screen, Ovarian Cancer; conditions: Homo sapiens; OVCAR-8, Ovarian Cancer; five-dose screen; read-out: GI50
SNB-19 = test: NCI60 five-dose screen, CNS Cancer; conditions: Homo sapiens; SNB-19, CNS Cancer; five-dose screen; read-out: GI50
MDA-MB-435 = test: NCI60 five-dose screen, Melanoma; conditions: Homo sapiens; MDA-MB-435, Melanoma; five-dose screen; read-out: GI50
RXF 393 = test: NCI60 five-dose screen, Renal Cancer; conditions: Homo sapiens, RXF 393, Renal Cancer
CAKI-1 = test: NCI60 five-dose screen, Renal Cancer; conditions: Homo sapiens; CAKI-1, Renal Cancer; five-dose screen; read-out: GI50
EKVX = test: NCI60 five-dose screen, Non-small Cell Lung Cancer; conditions: Homo sapiens, Non-small Cell Lung Cancer, five-dose screen, read-out: GI50
MDA-MB-468 = test: NCI60 five-dose screen, Breast Cancer; conditions: Homo sapiens; MDA-MB-468, Breast Cancer; five-dose screen; read-out: GI50
HT29 = test: NCI60 five-dose screen, Colon Cancer; conditions: Homo sapiens, HT-29; HT29, Colon Cancer; five-dose screen; read-out: GI50
SK-MEL-5 = test: NCI60 five-dose screen, Melanoma; conditions: Homo sapiens; SK-MEL-5, Melanoma; five-dose screen; read-out: GI50
DU-145 = test: NCI60 five-dose screen, Prostate Cancer; conditions: Homo sapiens; DU-145, Prostate Cancer; five-dose screen; read-out: GI50
HCT-15 = test: NCI60 five-dose screen, Colon Cancer; conditions: Homo sapiens; HCT-15, Colon Cancer; five-dose screen; read-out: GI50
SF-295 = test: NCI60 five-dose screen, CNS Cancer; conditions: Homo sapiens; SF-295, CNS Cancer; five-dose screen; read-out: GI50
K-562 = test: NCI60 five-dose screen, Leukemia; conditions: Homo sapiens, K562; K-562, Leukemia; five-dose screen; read-out: GI50
HL-60(TB) = test: NCI60 five-dose screen, Leukemia; conditions: Homo sapiens; HL-60(TB), Leukemia; five-dose screen; read-out: GI50
LOX IMVI = test: NCI60 five-dose screen, Melanoma; conditions: Homo sapiens, Melanoma, five-dose screen, read-out: GI50
U251 = test: NCI60 five-dose screen, CNS Cancer; conditions: Homo sapiens, U-251; U251, CNS Cancer; five-dose screen; read-out: GI50
HOP-62 = test: NCI60 five-dose screen, Non-small Cell Lung Cancer; conditions: Homo sapiens; HOP-62, Non-small Cell Lung Cancer; five-dose screen; read-out: GI50
COLO 205 = test: NCI60 five-dose screen, Colon Cancer; conditions: Homo sapiens; COLO 205, Colon Cancer; five-dose screen; read-out: GI50
UACC-62 = test: NCI60 five-dose screen, Melanoma; conditions: Homo sapiens; UACC-62, Melanoma; five-dose screen; read-out: GI50
NCI-H226 = test: NCI60 five-dose screen, Non-small Cell Lung Cancer; conditions: Homo sapiens; NCI-H226, Non-small Cell Lung Cancer; five-dose screen; read-out: GI50
SF-268 = test: NCI60 five-dose screen, CNS Cancer; conditions: Homo sapiens; SF-268, CNS Cancer; five-dose screen; read-out: GI50
HOP-92 = test: NCI60 five-dose screen, Non-small Cell Lung Cancer; conditions: Homo sapiens; HOP-92, Non-small Cell Lung Cancer; five-dose screen; read-out: GI50
NCI-H23 = test: NCI60 five-dose screen, Non-small Cell Lung Cancer; conditions: Homo sapiens; NCI-H23, Non-small Cell Lung Cancer; five-dose screen; read-out: GI50
SK-MEL-2 = test: NCI60 five-dose screen, Melanoma; conditions: Homo sapiens; SK-MEL-2, Melanoma; five-dose screen; read-out: GI50
SK-OV-3 = test: NCI60 five-dose screen, Ovarian Cancer; conditions: Homo sapiens; SK-OV-3, Ovarian Cancer; five-dose screen; read-out: GI50
SF-539 = test: NCI60 five-dose screen, CNS Cancer; conditions: Homo sapiens; SF-539, CNS Cancer; five-dose screen; read-out: GI50
A498 = test: NCI60 five-dose screen, Renal Cancer; conditions: Homo sapiens; A498, Renal Cancer; five-dose screen; read-out: GI50
HCT-116 = test: NCI60 five-dose screen, Colon Cancer; conditions: Homo sapiens; HCT-116, Colon Cancer; five-dose screen; read-out: GI50
T-47D = test: NCI60 five-dose screen, Breast Cancer; conditions: Homo sapiens, T47D; T-47D, Breast Cancer; five-dose screen; read-out: GI50
SK-MEL-28 = test: NCI60 five-dose screen, Melanoma; conditions: Homo sapiens; SK-MEL-28, Melanoma; five-dose screen; read-out: GI50

With `CC[C@]12C=CCN3CC[C@@]4(c5ccc(OC)cc5N(C)[C@H]4[C@@](O)(C(=O)OC)[C@@H]1OC(=O)CCCN1CCN(Cc4ccc(F)cc4)CC1)[C@@H]32` [Compound 24] the GI50 (BT-549) was 7.24 µM, the GI50 (RPMI-8226) was 4.17 µM and the GI50 ([1]; 60 cell, mean over all 60 cell lines) was 6.84 µM. The GI50 ([1]; mean over Breast Cancer panel) was 4.25 µM, the GI50 ([1]; mean over CNS Cancer panel) was 8.08 µM and the GI50 ([1]; mean over Colon Cancer panel) was 6.09 µM. The GI50 ([1]; mean over Leukemia panel) was 3.19 µM, the GI50 ([1]; mean over Melanoma panel) was 5.92 µM and the GI50 ([1]; mean over Non-small Cell Lung Cancer panel) was 9.83 µM. For the same compound, the GI50 ([1]; mean over Ovarian Cancer panel) was 10.1 µM, the GI50 ([1]; mean over Prostate Cancer panel) was 7.32 µM and the GI50 ([1]; mean over Renal Cancer panel) was 5.58 µM. The GI50 (M14) was 5.5 µM, the GI50 (OVCAR-8) was 14.5 µM and the GI50 (SNB-19) was 11.5 µM. It also gave a GI50 (MDA-MB-435) of 5.5 µM, a GI50 (RXF 393) of 1 µM and a GI50 (CAKI-1) of 2.24 µM. It also gave a GI50 (EKVX) of 12 µM, a GI50 (MDA-MB-468) of 1.74 µM and a GI50 (HT29) of 3.8 µM. The GI50 (SK-MEL-5) was 1.66 µM, the GI50 (DU-145) was 10.5 µM and the GI50 (HCT-15) was 5.13 µM. It also gave a GI50 (SF-295) of 12.6 µM, a GI50 (K-562) of 2.4 µM and a GI50 (HL-60(TB)) of 3.31 µM. For the same compound, the GI50 (LOX IMVI) was 5.01 µM, the GI50 (U251) was 7.59 µM and the GI50 (HOP-62) was 10.2 µM. It also gave a GI50 (COLO 205) of 1.95 µM, a GI50 (UACC-62) of 11.5 µM and a GI50 (NCI-H226) of 10.5 µM. For the same compound, the GI50 (SF-268) was 5.25 µM, the GI50 (HOP-92) was 1.66 µM and the GI50 (NCI-H23) was 13.2 µM. It also gave a GI50 (SK-MEL-2) of 15.1 µM, a GI50 (SK-OV-3) of 12 µM and a GI50 (SF-539) of 10.5 µM. For the same compound, the GI50 (A498) was 12.9 µM, the GI50 (HCT-116) was 5.62 µM and the GI50 (T-47D) was 5.62 µM. The GI50 (SK-MEL-28) was 4.68 µM.
